Common to all, as to assay type: functional
For assay [1], the system named is Staphylococcus aureus. The assay can be described thus: Antibacterial activity against methicillin-resistant Staphylococcus aureus infected in New Zealand white rabbit osteomyelitis model assessed as change in bacterial load in joint fluid per gram of tissue administered via constant iv infusion on day 3 post infection measured on day 7 by HPLC analysis.
In assay [2] the test system is Staphylococcus aureus. The assay can be described thus: Antibacterial activity against methicillin-resistant Staphylococcus aureus infected in New Zealand white rabbit osteomyelitis model assessed as change in bacterial load in bone marrow per gram of tissue administered via constant iv infusion on day 3 post infection measured on day 7 by HPLC analysis.
The subject of assay [3] is Staphylococcus aureus. The assay can be described thus: Antibacterial activity against methicillin-resistant Staphylococcus aureus infected in New Zealand white rabbit osteomyelitis model assessed as change in bacterial load in bone per gram of tissue administered via constant iv infusion on day 3 post infection measured on day 7 by HPLC analysis.
Assay [4] concerns Staphylococcus aureus. The assay can be described thus: Antibacterial activity against methicillin-resistant Staphylococcus aureus infected in New Zealand white rabbit osteomyelitis model assessed as change in bacterial load in joint fluid per gram of tissue administered via constant iv infusion in presence of unloaded calcium-deficient apatites on day 3 post infection measured on day 7 by HPLC analysis.

Assay [5] deals with Staphylococcus aureus. The assay can be described thus: Antibacterial activity against methicillin-resistant Staphylococcus aureus infected in New Zealand white rabbit osteomyelitis model assessed as change in bacterial load in bone marrow per gram of tissue administered via constant iv infusion in presence of unloaded calcium-deficient apatites on day 3 post infection measured on day 7 by HPLC analysis.

For assay [6], the system named is Staphylococcus aureus. The assay can be described thus: Antibacterial activity against methicillin-resistant Staphylococcus aureus infected in New Zealand white rabbit osteomyelitis model assessed as change in bacterial load in bone per gram of tissue administered via constant iv infusion in presence of unloaded calcium-deficient apatites on day 3 post infection measured on day 7 by HPLC analysis.

Assay [7] concerns Staphylococcus aureus. The assay can be described thus: Antibacterial activity against methicillin-resistant Staphylococcus aureus infected in New Zealand white rabbit osteomyelitis model assessed as change in bacterial load in joint fluid per gram of tissue at 25 ug/mg administered via calcium-deficient apatite on day 3 post infection measured on day 7 by HPLC analysis.
For assay [8], the system named is Staphylococcus aureus. The assay can be described thus: Antibacterial activity against methicillin-resistant Staphylococcus aureus infected in New Zealand white rabbit osteomyelitis model assessed as change in bacterial load in bone marrow per gram of tissue at 25 ug/mg administered via calcium-deficient apatite on day 3 post infection measured on day 7 by HPLC analysis.

For assay [9], the system named is Staphylococcus aureus. The assay can be described thus: Antibacterial activity against methicillin-resistant Staphylococcus aureus infected in New Zealand white rabbit osteomyelitis model assessed as change in bacterial load in bone per gram of tissue at 25 ug/mg administered via calcium-deficient apatite on day 3 post infection measured on day 7 by HPLC analysis.

For assay [10], the system named is Staphylococcus aureus. The assay can be described thus: Antibacterial activity against methicillin-resistant Staphylococcus aureus infected in New Zealand white rabbit osteomyelitis model assessed as change in bacterial load in joint fluid per gram of tissue at 25 ug/mg administered via calcium-deficient apatite followed by constant iv infusion on day 3 post infection measured on day 7 by HPLC analysis.

The subject of assay [11] is Staphylococcus aureus. The assay can be described thus: Antibacterial activity against methicillin-resistant Staphylococcus aureus infected in New Zealand white rabbit osteomyelitis model assessed as change in bacterial load in bone marrow per gram of tissue at 25 ug/mg administered via calcium-deficient apatite followed by constant iv infusion on day 3 post infection measured on day 7 by HPLC analysis.

The subject of assay [12] is Staphylococcus aureus. The assay can be described thus: Antibacterial activity against methicillin-resistant Staphylococcus aureus infected in New Zealand white rabbit osteomyelitis model assessed as change in bacterial load in bone per gram of tissue at 25 ug/mg administered via calcium-deficient apatite followed by constant iv infusion on day 3 post infection measured on day 7 by HPLC analysis.

In assay [13] the test system is Staphylococcus aureus. The assay can be described thus: Antibacterial activity against methicillin-resistant Staphylococcus aureus infected in New Zealand white rabbit osteomyelitis model assessed as change in bacterial load in joint fluid per gram of tissue at 100 ug/mg administered via calcium-deficient apatite on day 3 post infection measured on day 7 by HPLC analysis.

The subject of assay [14] is Staphylococcus aureus. The assay can be described thus: Antibacterial activity against methicillin-resistant Staphylococcus aureus infected in New Zealand white rabbit osteomyelitis model assessed as change in bacterial load in bone marrow per gram of tissue at 100 ug/mg administered via calcium-deficient apatite on day 3 post infection measured on day 7 by HPLC analysis.

Assay [15] has as its system Staphylococcus aureus. The assay can be described thus: Antibacterial activity against methicillin-resistant Staphylococcus aureus infected in New Zealand white rabbit osteomyelitis model assessed as change in bacterial load in bone per gram of tissue at 100 ug/mg administered via calcium-deficient apatite on day 3 post infection measured on day 7 by HPLC analysis.
Assay [16] relates to Staphylococcus aureus. The assay can be described thus: Antibacterial activity against methicillin-resistant Staphylococcus aureus infected in New Zealand white rabbit osteomyelitis model assessed as change in bacterial load in joint fluid per gram of tissue at 100 ug/mg administered via calcium-deficient apatite followed by constant iv infusion on day 3 post infection measured on day 7 by HPLC analysis.

Assay [17] has as its system Staphylococcus aureus. The assay can be described thus: Antibacterial activity against methicillin-resistant Staphylococcus aureus infected in New Zealand white rabbit osteomyelitis model assessed as change in bacterial load in bone marrow per gram of tissue at 100 ug/mg administered via calcium-deficient apatite followed by constant iv infusion on day 3 post infection measured on day 7 by HPLC analysis.

In assay [18] the test system is Staphylococcus aureus. The assay can be described thus: Antibacterial activity against methicillin-resistant Staphylococcus aureus infected in New Zealand white rabbit osteomyelitis model assessed as change in bacterial load in bone per gram of tissue at 100 ug/mg administered via calcium-deficient apatite followed by constant iv infusion on day 3 post infection measured on day 7 by HPLC analysis.

The subject of assay [19] is Staphylococcus aureus. The assay can be described thus: Antibacterial activity against methicillin-resistant Staphylococcus aureus infected in New Zealand white rabbit osteomyelitis model assessed as change in bacterial load in joint fluid per gram of tissue at 500 ug/mg administered via calcium-deficient apatite on day 3 post infection measured on day 7 by HPLC analysis.

In assay [20] the test system is Staphylococcus aureus. The assay can be described thus: Antibacterial activity against methicillin-resistant Staphylococcus aureus infected in New Zealand white rabbit osteomyelitis model assessed as change in bacterial load in bone marrow per gram of tissue at 500 ug/mg administered via calcium-deficient apatite on day 3 post infection measured on day 7 by HPLC analysis.

Assay [21] concerns Staphylococcus aureus. The assay can be described thus: Antibacterial activity against methicillin-resistant Staphylococcus aureus infected in New Zealand white rabbit osteomyelitis model assessed as change in bacterial load in bone per gram of tissue at 500 ug/mg administered via calcium-deficient apatite on day 3 post infection measured on day 7 by HPLC analysis.
Assay [22] relates to Staphylococcus aureus. The assay can be described thus: Antibacterial activity against methicillin-resistant Staphylococcus aureus infected in New Zealand white rabbit osteomyelitis model assessed as change in bacterial load in joint fluid per gram of tissue at 500 ug/mg administered via calcium-deficient apatite followed by constant iv infusion on day 3 post infection measured on day 7 by HPLC analysis.

Assay [23] deals with Staphylococcus aureus. The assay can be described thus: Antibacterial activity against methicillin-resistant Staphylococcus aureus infected in New Zealand white rabbit osteomyelitis model assessed as change in bacterial load in bone marrow per gram of tissue at 500 ug/mg administered via calcium-deficient apatite followed by constant iv infusion on day 3 post infection measured on day 7 by HPLC analysis.

SMILES strings stand for the structures.

With `CN[C@H](CC(C)C)C(=O)N[C@H]1C(=O)N[C@@H](CC(N)=O)C(=O)N[C@H]2C(=O)N[C@H]3C(=O)N[C@H](C(=O)N[C@H](C(=O)O)c4cc(O)cc(O)c4-c4cc3ccc4O)[C@H](O)c3ccc(c(Cl)c3)Oc3cc2cc(c3O[C@@H]2O[C@H](CO)[C@@H](O)[C@H](O)[C@H]2O[C@H]2C[C@](C)(N)[C@H](O)[C@H](C)O2)Oc2ccc(cc2Cl)[C@H]1O` [VANCOMYCIN], the log10cfu is recorded as 0.03 in the assay on Staphylococcus aureus [1]; 0.73 in the assay with Staphylococcus aureus [2]; 0.61 with Staphylococcus aureus [3]; 0.3 with Staphylococcus aureus [4]; 0.75 in the assay with Staphylococcus aureus [5]; 0.35 in the assay on Staphylococcus aureus [6]. In addition, the log10cfu in the assay on Staphylococcus aureus [7] is 0.56; in the assay with Staphylococcus aureus [8], 1.89; with Staphylococcus aureus [9], 1.97; in the assay with Staphylococcus aureus [10], 0.68; in the assay on Staphylococcus aureus [11], -3.14; in the assay with Staphylococcus aureus [12], -2.4. Moreover, the log10cfu in the assay with Staphylococcus aureus [13] was 0.05; in the assay on Staphylococcus aureus [14] it was 3.41; in the assay with Staphylococcus aureus [15], 2.35; in the assay on Staphylococcus aureus [16], 0.9; in the assay on Staphylococcus aureus [17] it was -4.03; in the assay on Staphylococcus aureus [18], -4.63. For the same compound, the log10cfu in the assay with Staphylococcus aureus [19] worked out at 0.29; in the assay with Staphylococcus aureus [20], 4.08; with Staphylococcus aureus [21] it was 3.57; with Staphylococcus aureus [22], 1.69; in the assay with Staphylococcus aureus [23], 4.21.
